Test results as given in PMC12345137 (mBio, 2025).

How the values were obtained:
S. epidermidis agr-III = S. epidermidis agr-III (Staphylococcus epidermidis, UniProt Q8VSX2); assay: cell-based; type: cell-based; details: fluorescent reporter strain; peptides tested at 1000, 50, 2.5, 0.125 nM or in dose-response
Experimental: (§1) Peptides were evaluated for the ability to interfere with agr-mediated quorum sensing in S. aureus (AH1677, AH430, AH1747, and AH1872 for agr-I–IV, respectively) ([40]) using reporter strains expressing yellow fluorescent protein (YFP) upon agr activation. Interference with agr-mediated quorum sensing in S. epidermidis (AH3408, AH3623, and AH3409 for agr-I–III, respectively) ([45]), and S. lugdunensis (AH4031 for agr-I) ([37]) was evaluated using reporter strains expressing superfolder green fluorescent protein (sGFP) upon agr activation. Overnight cultures of the reporter strains were grown in TSB medium containing chloramphenicol (CAM, 10 μg/mL for S. aureus) or erythromycin (ERM, 10 μg/mL of S. epidermidis and S. lugdunensis) and diluted 1:100 in fresh TSB medium containing the same antibiotic. Assays were performed in sterile black 96-well plates with a clear bottom. […] DMSO stock solutions of peptides (1 mM) were diluted in TSB media and added (15 μL) in technical triplicate to the 96-well plate, followed by diluted bacterial overnight cultures (135 μL). Control wells for 100% agr activity were wells replacing the peptide solution with TSB medium (15 μL). […] Wells containing 150 μL TSB medium were used to measure background fluorescence. The 96-well plates were incubated in a humidified incubator at 37°C shaking at 1,000 rpm for 22–24 h and fluorescence (for GFP: excitation 479 nm, emission 520 nm; for YFP: excitation 500 nm, emission 541 nm; automatic gain), and OD600 values were subsequently measured using a plate reader. Background fluorescence was subtracted from all wells and further normalized to the corresponding OD600 value of the respective wells. The average fluorescence of control wells was used as a relative measure for 100% activation of the agr-circuit, and bar graphs were generated using GraphPad Prism 10.4 software. All assays were performed in at least a biological duplicate.
(§2) Overnight cultures of the reporter strains were grown in TSB medium containing chloramphenicol (CAM, 10 μg/mL for S. aureus) or erythromycin (ERM, 10 μg/mL of S. epidermidis and S. lugdunensis) and diluted 1:100 in fresh TSB medium containing the same antibiotic. Assays were performed in sterile black 96-well plates with clear bottoms. Peptide solutions (15 μL) in 1:5 serial dilutions from DMSO stock solutions (1 mM) in TSB medium were added to the 96-well plate in technical duplicate followed by diluted bacterial overnight cultures (135 μL). Control wells for 100% agr activity were wells replacing the peptide solution with TSB medium (15 μL). Wells containing 150 μL TSB medium were used to measure background fluorescence. The 96-well plates were incubated in a humidified incubator at 37°C shaking at 1,000 rpm for 22–24 h and fluorescence (for GFP: excitation 479 nm, emission 520 nm; for YFP: excitation 500 nm, emission 541 nm; automatic gain), and OD600 values were subsequently measured using a plate reader. Background fluorescence was subtracted from all wells and further normalized to the corresponding OD600 value of the respective wells. The average fluorescence of control wells was used as a relative measure for 100% activation of the agr-circuit. Relative agr activity was plotted to obtain IC50 values by non-linear regression with variable slope using GraphPad Prism 10.4 software. All assays were performed in biological triplicate.

S. aureus agr-IV = S. aureus agr-IV (Staphylococcus aureus, UniProt Q309Z2); assay: cell-based; type: cell-based; details: fluorescent reporter strain; peptides tested at 1000, 50, 2.5, 0.125 nM or in dose-response
Experimental: as §1, §2

S. lugdunensis agr-I = S. lugdunensis agr-I (Staphylococcus lugdunensis, UniProt Q8VSW5); assay: cell-based; details: fluorescent reporter strain; peptides tested at 1000, 50, 2.5, 0.125 nM or in dose-response
Experimental: as §1, §2

SA AgrC-IV = SA AgrC-IV (Staphylococcus aureus, UniProt Q309Z2); details: 100 nM cognate AIP, ± SEM, -b = no inhibition recorded at the highest AIP concentration tested, determined previously, ref (1), cited from earlier work
SA AgrC-II = SA AgrC-II (Staphylococcus aureus, UniProt O33587); details: 100 nM cognate AIP; ± SEM; -b = no inhibition recorded at the highest AIP concentration tested; determined previously; ref (1); read-out: IC50, SA AgrC-II, b-lactamase assay; cited from earlier work
SA AgrC-III = SA AgrC-III (Staphylococcus aureus, UniProt O33590); details: 100 nM cognate AIP; ± SEM; -b = no inhibition recorded at the highest AIP concentration tested; determined previously; ref (1); read-out: IC50, SA AgrC-III, b-lactamase assay; cited from earlier work
S. aureus (SA) agr-II = details: fluorescence; ref (14); cited from earlier work
S. aureus (SA) agr-I = details: fluorescence; ref (14); cited from earlier work
S. aureus (SA) agr-III = details: fluorescence; ref (14); cited from earlier work
[1] = tested on: S. epidermidis (SE) agr-II; details: fluorescence; ref (14); cited from earlier work
S. aureus (SA) agr-IV = details: fluorescence; ref (14); cited from earlier work
[2] = tested on: S. epidermidis (SE) agr-I; details: fluorescence; ref (14); cited from earlier work

## S. simulans AIP-II/III Y3A/N3A [compound 38]
S. epidermidis agr-III
  QS interaction in words (inhibition / activation), S. epidermidis agr-III: inhibitor

## S. simulans AIP-III 8-mer [compound 52]
S. aureus agr-IV
  QS interaction in words (inhibition / activation), S. aureus agr-IV: increased inhibition

## S. simulans AIP-III G7A [compound 49]
S. epidermidis agr-III
  QS interaction in words (inhibition / activation), S. epidermidis agr-III: loss of activation

## S. simulans AIP-III K1A [compound 45]
S. epidermidis agr-III
  QS interaction in words (inhibition / activation), S. epidermidis agr-III: lost the ability to activate

## S. simulans AIP-III P4A [compound 47]
S. lugdunensis agr-I
  QS interaction in words (inhibition / activation), S. lugdunensis agr-I: increase in inhibition

## S. simulans AIP-III W6A [compound 48]
S. epidermidis agr-III
  QS interaction in words (inhibition / activation), S. epidermidis agr-III: no effect on S. epidermidis agr-III activation

## S. simulans AIP-III Y2A [compound 46]
S. epidermidis agr-III
  QS interaction in words (inhibition / activation), S. epidermidis agr-III: lost the ability to activate

## S. vitulinus AIP-I [compound 35]
SA AgrC-IV
  IC50, SA AgrC-IV, b-lactamase assay: -b
SA AgrC-II
  IC50: 800 ± 116 nM
SA AgrC-III
  IC50: 690 ± 46 nM

## S. warneri AIP-I [compound 16]
S. aureus (SA) agr-II
  IC50: 4 nM
S. aureus (SA) agr-I
  IC50: 10 nM
S. aureus (SA) agr-III
  IC50: 13 nM
[1]
  IC50: 19 nM
S. aureus (SA) agr-IV
  IC50: 146 nM
SA AgrC-IV; read-out: IC50, SA AgrC-IV, b-lactamase assay
  IC50: > 1000 nM
SA AgrC-II
  IC50: 1000 ± 105 nM
SA AgrC-III
  IC50: 460 ± 59 nM
[2]
  IC50: 3 nM

## S. warneri AIP-II [compound 17]
S. aureus (SA) agr-II
  IC50: 30 nM
S. aureus (SA) agr-I
  IC50: 2 nM
S. aureus (SA) agr-III
  IC50: 2 nM
[1]
  IC50: 4 nM
S. aureus (SA) agr-IV
  IC50: 2 nM
[2]
  IC50: 12 nM
